From PubChem BioAssay (NCI)
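Cells were grown in 96-well plates and exposed to each compound for 48 hours at five concentrations; endpoints were interpolated linearly between bracketing concentrations, or set to the highest concentration if not reached. GI50 = concentration required for 50% inhibition of growth. TGI denotes the concentration required for complete inhibition of growth.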

These compounds were tested on CAKI-1 renal (assay: NCI-60 cell line screen, 48 h).
Work on C=CCc1ccc(Oc2cc(CC=C)c3c(c2O)O[C@@H](CO)[C@H]3c2ccc(O)c(-c3cc(CC=C)ccc3O)c2)cc1 yielded a TGI greater than 100 µM.
Work on O=S(=O)(Nc1cc(Sc2cccc3cccnc23)c(O)c2ccccc12)c1ccccc1 yielded a GI50 of 1.97 µM and a TGI of 10.1 µM.
With O=C(NCO)NCOCn1c(=O)n(CO)c(=O)n(CO)c1=O the TGI was greater than 100 µM.
For CN(C)C(=O)[C@H](O)[C@H](Cc1ccccc1)NC(=O)c1cc2cc(Cl)ccc2[nH]1, the GI50 was 19.3 µM and the TGI was greater than 77.5 µM.
CC(C)(C[C@H]1CN(S(=O)(=O)c2cccc(C(F)(F)F)c2)c2cc(-c3cc(F)cc(OC(F)F)c3)ccc2O1)C(=O)O was tested, and the GI50 was 10.5 µM and the TGI was 24.4 µM.
For Cc1ccc(-c2nc3ccc(Cl)cc3c(=O)n2N2C(=O)CSC2c2ccccc2Cl)cc1 (stereo unspecified), the GI50 was 4.82 µM and the TGI was greater than 100 µM.
Compound O=C(O)C1C(Br)(c2ccccc2)C1(Br)c1ccccc1 (stereo unspecified) has a TGI of 81.9 µM.
Work on C#Cc1c(I)n(C2OC(CO[Si](C)(C)C(C)(C)C)C3OC(C)(C)OC32)c(=O)[nH]c1=O (stereo unspecified) yielded a GI50 of 11.6 µM and a TGI of 24.8 µM.
CCSc1nc(SCC)c2cn[nH]c2n1 was tested, and the GI50 was 22.9 µM and the TGI was 74.6 µM.
Compound ClCC[N+]12CC[N+](CCCl)(CC1)C2 has a TGI greater than 100 µM.
COc1ccc(CCN2COc3c([C@@H](C)CCC=C(C)C)ccc(C)c3C2)cc1OC gave a GI50 of 2.73 µM and a TGI of 12.1 µM.
Compound COc1cc(C(=O)c2cc(C)c3[nH]c4ccc(C)cc4c3c2C)cc(OC)c1OC has a GI50 of less than 0.01 µM and a TGI greater than 40.5 µM.
C=C1C(=O)OC2/C=C(\COC(C)=O)CCC(OC(C)=O)C3=CC(OC3=O)C12 (stereo unspecified) was tested, and the TGI was 10.1 µM.
In the case of Cc1ccc2[nH]c(O)c(N=Nc3ccc(S(N)(=O)=O)cc3)c2c1, the GI50 is reported as 17.8 µM and the TGI is reported as greater than 25 µM.
With C/C(N=NC(=S)N(C)C)=C1\C=CC=CN1O the TGI was greater than 100 µM.
CCCSc1nc(COC(=O)NC)c(COC(=O)NC)n1C showed a TGI greater than 100 µM.
Compound O=C1CCC(O)=C1N=Nc1ccccc1 has a TGI greater than 100 µM.
Work on C=C1CCC(CC[C@@H]2CC[C@]3(OC2)O[C@@]2(O)CC[C@]3(C)OC2(C)C)C(C)(C)[C@H]1C/C=C1/C(=O)OC[C@@H]1O (stereo partly specified) yielded a TGI of 16.5 µM.
For C[C@]12CC[C@@H]3c4cc(OCC(F)(F)F)c(O)cc4/C(=N/O)C[C@H]3[C@@H]1CC[C@@H]2O, the TGI was greater than 66.6 µM.
Compound Cn1c(=O)c(Cc2ccccc2F)cc2cnc(NC3CCOCC3)nc21 has a GI50 greater than 25 µM and a TGI greater than 25 µM.
Compound COc1cc(/C=C/c2ccc(OC)c(OC)c2)cc(OC)c1 has a TGI of 94.1 µM.
In the case of CC1(C)[C@@H](OC(N)=O)[C@H]2O[C@H]2[C@]2(C=O)[C@H]3CC[C@]4(C)[C@@H](c5ccc(=O)oc5)[C@@H](Cl)C[C@]4(O)C3=CC[C@@H]12, the GI50 is reported as 0.00448 µM and the TGI is reported as 0.00859 µM.
Compound CCCCON(OC(=O)c1ccc2ccc3cccc4ccc1c2c34)C(C)=O has a GI50 of 14.4 µM and a TGI of 32.6 µM.
Clc1ccc(C=Nc2ccc3c(c2)Cc2ccccc2-3)c(Cl)c1 gave a TGI greater than 100 µM.
CN(C)CCN1C(=O)c2ccc3c4c(ccc(c24)C1=O)C(=O)N(CCN=C=S)C3=O gave a GI50 of 0.0448 µM and a TGI of 0.785 µM.
In the case of COc1ccc2nc(NC(=O)C(=O)C(C#N)c3ccc([N+](=O)[O-])cc3)sc2c1 (stereo unspecified), the TGI is reported as greater than 100 µM.
COc1ccc(/C=C/c2cc(OC)cc(=O)o2)cc1 gave a TGI greater than 100 µM.
With O=C1CSC(c2ccc(Cl)cc2Cl)N1c1ccc(F)cc1 (stereo unspecified) the GI50 was 24.9 µM and the TGI was 42.7 µM.
For O=C(O)[C@H](NS(=O)(=O)c1ccc([N+](=O)[O-])cc1)c1ccccc1, the TGI was greater than 100 µM.
S=C1OC2CCCC[C@H]2O1 (stereo partly specified) gave a TGI greater than 100 µM.

These compounds were tested on LOX IMVI melanoma (assay: NCI-60 cell line screen, 48 h).
For C=CCc1ccc(Oc2cc(CC=C)c3c(c2O)O[C@@H](CO)[C@H]3c2ccc(O)c(-c3cc(CC=C)ccc3O)c2)cc1, the TGI was 30.9 µM.
In the case of O=S(=O)(Nc1cc(Sc2cccc3cccnc23)c(O)c2ccccc12)c1ccccc1, the GI50 is reported as 0.522 µM and the TGI is reported as 10.1 µM.
O=C(NCO)NCOCn1c(=O)n(CO)c(=O)n(CO)c1=O showed a TGI of 37.3 µM.
CN(C)C(=O)[C@H](O)[C@H](Cc1ccccc1)NC(=O)c1cc2cc(Cl)ccc2[nH]1 was tested, and the GI50 was 17 µM and the TGI was 38.5 µM.
CC(C)(C[C@H]1CN(S(=O)(=O)c2cccc(C(F)(F)F)c2)c2cc(-c3cc(F)cc(OC(F)F)c3)ccc2O1)C(=O)O showed a GI50 of 6.54 µM and a TGI of 22.5 µM.
Compound Cc1ccc(-c2nc3ccc(Cl)cc3c(=O)n2N2C(=O)CSC2c2ccccc2Cl)cc1 (stereo unspecified) has a GI50 of 70.1 µM and a TGI greater than 100 µM.
Compound O=C(O)C1C(Br)(c2ccccc2)C1(Br)c1ccccc1 (stereo unspecified) has a TGI greater than 100 µM.
Compound C#Cc1c(I)n(C2OC(CO[Si](C)(C)C(C)(C)C)C3OC(C)(C)OC32)c(=O)[nH]c1=O (stereo unspecified) has a GI50 of 3.42 µM and a TGI of 18.5 µM.
Work on CCSc1nc(SCC)c2cn[nH]c2n1 yielded a GI50 of 57.1 µM and a TGI greater than 100 µM.
Work on ClCC[N+]12CC[N+](CCCl)(CC1)C2 yielded a TGI greater than 100 µM.
COc1ccc(CCN2COc3c([C@@H](C)CCC=C(C)C)ccc(C)c3C2)cc1OC was tested, and the GI50 was 1.77 µM and the TGI was 3.75 µM.
For COc1cc(C(=O)c2cc(C)c3[nH]c4ccc(C)cc4c3c2C)cc(OC)c1OC, the GI50 was less than 0.01 µM and the TGI was greater than 100 µM.
C=C1C(=O)OC2/C=C(\COC(C)=O)CCC(OC(C)=O)C3=CC(OC3=O)C12 (stereo unspecified) showed a TGI of 19 µM.
Compound Cc1ccc2[nH]c(O)c(N=Nc3ccc(S(N)(=O)=O)cc3)c2c1 has a GI50 of 13.1 µM and a TGI greater than 25 µM.
C/C(N=NC(=S)N(C)C)=C1\C=CC=CN1O showed a TGI greater than 100 µM.
CCCSc1nc(COC(=O)NC)c(COC(=O)NC)n1C was tested, and the TGI was greater than 100 µM.
Compound O=C1CCC(O)=C1N=Nc1ccccc1 has a TGI greater than 100 µM.
C=C1CCC(CC[C@@H]2CC[C@]3(OC2)O[C@@]2(O)CC[C@]3(C)OC2(C)C)C(C)(C)[C@H]1C/C=C1/C(=O)OC[C@@H]1O (stereo partly specified) showed a TGI of 1.88 µM.
In the case of C[C@]12CC[C@@H]3c4cc(OCC(F)(F)F)c(O)cc4/C(=N/O)C[C@H]3[C@@H]1CC[C@@H]2O, the GI50 is reported as 0.048 µM and the TGI is reported as 14.8 µM.
Cn1c(=O)c(Cc2ccccc2F)cc2cnc(NC3CCOCC3)nc21 was tested, and the GI50 was greater than 25 µM and the TGI was greater than 25 µM.
Work on COc1cc(/C=C/c2ccc(OC)c(OC)c2)cc(OC)c1 yielded a TGI of 41.8 µM.
CC1(C)[C@@H](OC(N)=O)[C@H]2O[C@H]2[C@]2(C=O)[C@H]3CC[C@]4(C)[C@@H](c5ccc(=O)oc5)[C@@H](Cl)C[C@]4(O)C3=CC[C@@H]12 was tested, and the GI50 was 0.00451 µM and the TGI was 0.00886 µM.
CCCCON(OC(=O)c1ccc2ccc3cccc4ccc1c2c34)C(C)=O was tested, and the GI50 was 16.9 µM and the TGI was 33.1 µM.
Clc1ccc(C=Nc2ccc3c(c2)Cc2ccccc2-3)c(Cl)c1 gave a TGI greater than 100 µM.
For CN(C)CCN1C(=O)c2ccc3c4c(ccc(c24)C1=O)C(=O)N(CCN=C=S)C3=O, the GI50 was 0.0352 µM and the TGI was 0.127 µM.
COc1ccc2nc(NC(=O)C(=O)C(C#N)c3ccc([N+](=O)[O-])cc3)sc2c1 (stereo unspecified) was tested, and the TGI was greater than 100 µM.
With COc1ccc(/C=C/c2cc(OC)cc(=O)o2)cc1 the TGI was greater than 100 µM.
Compound O=C1CSC(c2ccc(Cl)cc2Cl)N1c1ccc(F)cc1 (stereo unspecified) has a GI50 of 18.2 µM and a TGI of 34 µM.
With O=C(O)[C@H](NS(=O)(=O)c1ccc([N+](=O)[O-])cc1)c1ccccc1 the TGI was greater than 100 µM.
S=C1OC2CCCC[C@H]2O1 (stereo partly specified) gave a TGI greater than 100 µM.

What follows are compounds tested on SF-295 CNS (assay: NCI-60 cell line screen, 48 h).
With C=CCc1ccc(Oc2cc(CC=C)c3c(c2O)O[C@@H](CO)[C@H]3c2ccc(O)c(-c3cc(CC=C)ccc3O)c2)cc1 the TGI was greater than 100 µM.
For O=S(=O)(Nc1cc(Sc2cccc3cccnc23)c(O)c2ccccc12)c1ccccc1, the GI50 was 2.84 µM and the TGI was 15 µM.
Work on O=C(NCO)NCOCn1c(=O)n(CO)c(=O)n(CO)c1=O yielded a TGI greater than 100 µM.
CN(C)C(=O)[C@H](O)[C@H](Cc1ccccc1)NC(=O)c1cc2cc(Cl)ccc2[nH]1 was tested, and the GI50 was 17.3 µM and the TGI was 39 µM.
CC(C)(C[C@H]1CN(S(=O)(=O)c2cccc(C(F)(F)F)c2)c2cc(-c3cc(F)cc(OC(F)F)c3)ccc2O1)C(=O)O showed a GI50 of 4.12 µM and a TGI of 18.5 µM.
Compound Cc1ccc(-c2nc3ccc(Cl)cc3c(=O)n2N2C(=O)CSC2c2ccccc2Cl)cc1 (stereo unspecified) has a GI50 of 4.73 µM and a TGI greater than 100 µM.
With O=C(O)C1C(Br)(c2ccccc2)C1(Br)c1ccccc1 (stereo unspecified) the TGI was greater than 100 µM.
C#Cc1c(I)n(C2OC(CO[Si](C)(C)C(C)(C)C)C3OC(C)(C)OC32)c(=O)[nH]c1=O (stereo unspecified) was tested, and the GI50 was 28.4 µM and the TGI was 98.7 µM.
In the case of CCSc1nc(SCC)c2cn[nH]c2n1, the GI50 is reported as greater than 100 µM and the TGI is reported as greater than 100 µM.
Compound ClCC[N+]12CC[N+](CCCl)(CC1)C2 has a TGI greater than 100 µM.
For COc1ccc(CCN2COc3c([C@@H](C)CCC=C(C)C)ccc(C)c3C2)cc1OC, the GI50 was 2.02 µM and the TGI was 6.56 µM.
COc1cc(C(=O)c2cc(C)c3[nH]c4ccc(C)cc4c3c2C)cc(OC)c1OC gave a GI50 of less than 0.01 µM.
Compound C=C1C(=O)OC2/C=C(\COC(C)=O)CCC(OC(C)=O)C3=CC(OC3=O)C12 (stereo unspecified) has a TGI of 32.6 µM.
With Cc1ccc2[nH]c(O)c(N=Nc3ccc(S(N)(=O)=O)cc3)c2c1 the GI50 was greater than 14.9 µM and the TGI was greater than 25 µM.
